IC50 data for 35 compounds are collected here from patent EP0993459B1, “COMPOUNDS USEFUL FOR INHIBITION OF FARNESYL PROTEIN TRANSFERASE” (SCHERING CORPORATION, priority 1997, dated 1998).

In assay [1] the target is farnesyl protein transferase (Homo sapiens, UniProt P49354+P49356). The assay can be described thus: FPT IC50, inhibition of farnesyl protein transferase, in vitro enzyme assay (procedure of WO 95/10516). Format: biochemical. The settings on record: one range stated for the whole group of listed compounds, no individual values. How it is done:
(§1) FPT IC50 (inhibition of farnesyl protein transferase, in vitro enzyme assay) and COS Cell IC50 (Cell-Based Assay) were determined following the assay procedures described in WO 95/10516, published April 20, 1995. GGPT IC50 (inhibition of geranylgeranyl protein transferase, in vitro enzyme assay), Cell Mat Assay, and anti-tumor activity (in vivo anti-tumor studies) could be determined by the assay procedures described in WO 95/10516. The disclosure of WO 95/10516 is incorporated herein by reference thereto.

A further assay concerns COS Cell. The assay can be described thus: COS Cell IC50, cell-based assay (procedure of WO 95/10516). How it is done: as §1

Chain of farnesyl protein transferase (P49356 whole entry, one chain of several): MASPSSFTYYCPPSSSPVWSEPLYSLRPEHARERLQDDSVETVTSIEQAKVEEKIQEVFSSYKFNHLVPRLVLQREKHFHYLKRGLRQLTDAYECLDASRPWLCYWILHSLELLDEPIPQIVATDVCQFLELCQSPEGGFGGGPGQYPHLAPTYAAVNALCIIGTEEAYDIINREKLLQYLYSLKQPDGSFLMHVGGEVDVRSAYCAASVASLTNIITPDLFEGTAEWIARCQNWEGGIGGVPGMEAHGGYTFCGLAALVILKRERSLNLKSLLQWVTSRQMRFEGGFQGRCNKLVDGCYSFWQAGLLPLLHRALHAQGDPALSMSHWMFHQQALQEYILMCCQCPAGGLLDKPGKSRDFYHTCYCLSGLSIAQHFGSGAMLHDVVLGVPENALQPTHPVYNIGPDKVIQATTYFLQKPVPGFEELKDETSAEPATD

Turning to `O=C(C1CCC2(CC1)OCCO2)N1CCC([C@H]2c3ncc(Br)cc3CCc3cc(Cl)cc(Br)c32)CC1` [Compound 34.0], in assay [1], the IC50 (in general, the concentration that gives 50% inhibition) was no less than 1.9 nM.

`CC(C)(C)OC(=O)NC1CCCC(C(=O)N2CCC([C@H]3c4ncc(Br)cc4CCc4cc(Cl)cc(Br)c43)CC2)C1` (some centres unmarked) [Compound 43.0]: the IC50 in assay [1] is no less than 1.9 nM.

In assay [1], `NC(=O)N[C@H]1CC[C@@H](C(=O)N2CCC([C@H]3c4ncc(Br)cc4CCc4cc(Cl)cc(Br)c43)CC2)CC1` [Compound 38.0] displayed a 50% inhibitory concentration (IC50) of no less than 1.9 nM.

On to `O=C1CCCCC1CC(=O)N1CCC([C@H]2c3ncc(Br)cc3CCc3cc(Cl)cc(Br)c32)CC1` (some centres unmarked) [Compound 18.0], for which the IC50 in assay [1] was no less than 1.9 nM.

Take `NC(=O)NC1CCCC(C(=O)N2CCC([C@H]3c4ncc(Br)cc4CCc4cc(Cl)cc(Br)c43)CC2)C1` (some centres unmarked) [Compound 45.0]: the concentration for half-maximal inhibition (IC50) in assay [1] is no less than 1.9 nM.

`NC(=O)NN=C1CCC(CC(=O)N2CCC([C@H]3c4ncc(Br)cc4CCc4cc(Cl)cc(Br)c43)CC2)CC1` (some centres unmarked) [Compound 29.0] returned an IC50 in assay [1] of no less than 1.9 nM.

For the compound `O=C(CN1CCC2(CC1)SCCS2)N1CCC([C@H]2c3ncc(Br)cc3CCc3cc(Cl)cc(Br)c32)CC1` [Compound 28.0], in assay [1], the IC50 is no less than 1.9 nM.

Compound `NC1CCCC(C(=O)N2CCC([C@H]3c4ncc(Br)cc4CCc4cc(Cl)cc(Br)c43)CC2)C1` (some centres unmarked) [Compound 44.0] yielded an IC50 in assay [1] of no less than 1.9 nM.

With `CCOC(=O)C(=O)NC1CCCC(C(=O)N2CCC([C@H]3c4ncc(Br)cc4CCc4cc(Cl)cc(Br)c43)CC2)C1` (some centres unmarked) [Compound 46.0], in assay [1], the half-inhibitory concentration (IC50) was no less than 1.9 nM.

As for `CC(=O)NN=C1CCC(CC(=O)N2CCC([C@H]3c4ncc(Br)cc4CCc4cc(Cl)cc(Br)c43)CC2)CC1` (some centres unmarked) [Compound 30.0], the IC50 in assay [1] is no less than 1.9 nM.

`N[C@H]1CC[C@@H](C(=O)N2CCC([C@H]3c4ncc(Br)cc4CCc4cc(Cl)cc(Br)c43)CC2)CC1` [Compound 37.0] yielded an IC50 in assay [1] of no less than 1.9 nM.

Turning to `O=C1CCC(CC(=O)N2CCC([C@H]3c4ncc(Br)cc4CCc4cc(Cl)cc(Br)c43)CC2)CC1` [Compound 13.0], the half-maximal inhibitory concentration (IC50) in assay [1] was no less than 1.9 nM.

`CON=C1CCN(CC(=O)N2CCC([C@H]3c4ncc(Br)cc4CCc4cc(Cl)cc(Br)c43)CC2)CC1` [Compound 27.0]: the 50% inhibitory concentration (IC50) in assay [1] was no less than 1.9 nM.

As for `CON=C1CCC(C(=O)N2CCC([C@H]3c4ncc(Br)cc4CCc4cc(Cl)cc(Br)c43)CC2)CC1` (some centres unmarked) [Compound 35.0], the half-maximal inhibitory concentration (IC50) in assay [1] was no less than 1.9 nM.

In the case of `COc1ccc2c(c1)CC(CC(=O)N1CCC([C@H]3c4ncc(Br)cc4CCc4cc(Cl)cc(Br)c43)CC1)C2=O` (single isomer, unassigned) [Compound 17.0A], the half-maximal inhibitory concentration (IC50) in assay [1] is no less than 1.9 nM.

`O=C1CCC(C(=O)N2CCC([C@H]3c4ncc(Br)cc4CCc4cc(Cl)cc(Br)c43)CC2)CC1` [Compound 33.0]: the half-maximal inhibitory concentration (IC50) in assay [1] is no less than 1.9 nM.

Compound `O=C(O)CON=C1CCC(CC(=O)N2CCC([C@H]3c4ncc(Br)cc4CCc4cc(Cl)cc(Br)c43)CC2)CC1` (some centres unmarked) [Compound 31.0] returned a 50% inhibitory concentration (IC50) in assay [1] of no less than 1.9 nM.

As to `O=C([C@H]1CC[C@H](O)CC1)N1CCC([C@H]2c3ncc(Br)cc3CCc3cc(Cl)cc(Br)c32)CC1` [Compound 68.0], in assay [1], the IC50 is no less than 1.9 nM.

On to `C[C@]1(CCC(=O)N2CCC([C@H]3c4ncc(Br)cc4CCc4cc(Cl)cc(Br)c43)CC2)CCCCC1=O` [Compound 20.0], for which the IC50 in assay [1] is no less than 1.9 nM.

Take `O=C([C@H]1CC[C@@H](O)CC1)N1CCC([C@H]2c3ncc(Br)cc3CCc3cc(Cl)cc(Br)c32)CC1` [Compound 70.0]: the concentration for half-maximal inhibition (IC50) in assay [1] was no less than 1.9 nM.

In the case of `CC(=O)O[C@H]1CC[C@@H](C(=O)N2CCC([C@H]3c4ncc(Br)cc4CCc4cc(Cl)cc(Br)c43)CC2)CC1` [Compound 69.0], the IC50 with COS Cell came out at 30 nM.

In the case of `NC(=O)C(=O)NC1CCCC(C(=O)N2CCC([C@H]3c4ncc(Br)cc4CCc4cc(Cl)cc(Br)c43)CC2)C1` (some centres unmarked) [Compound 49.1], the concentration for half-maximal inhibition (IC50) in assay [1] is no less than 1.9 nM.

Take `O=C(CC1CCC(=NO)CC1)N1CCC([C@H]2c3ncc(Br)cc3CCc3cc(Cl)cc(Br)c32)CC1` (some centres unmarked) [Compound 23.0]: the 50% inhibitory concentration (IC50) in assay [1] was no less than 1.9 nM.

`CC(C)(C)[Si](C)(C)OCCON=C1CCC(CC(=O)N2CCC([C@H]3c4ncc(Br)cc4CCc4cc(Cl)cc(Br)c43)CC2)CC1` (some centres unmarked) [Compound 32.0] yielded an IC50 in assay [1] of no less than 1.9 nM.

In assay [1], `CC(C)(C)OC(=O)N[C@H]1CC[C@@H](C(=O)N2CCC([C@H]3c4ncc(Br)cc4CCc4cc(Cl)cc(Br)c43)CC2)CC1` [Compound 36.0] registered an IC50 of no less than 1.9 nM.

In assay [1], `CS(=O)(=O)N[C@H]1CC[C@@H](C(=O)N2CCC([C@H]3c4ncc(Br)cc4CCc4cc(Cl)cc(Br)c43)CC2)CC1` [Compound 40.0] gave a concentration for half-maximal inhibition (IC50) of no less than 1.9 nM.

As to `CON=C1CCC(CC(=O)N2CCC([C@H]3c4ncc(Br)cc4CCc4cc(Cl)cc(Br)c43)CC2)CC1` (some centres unmarked) [Compound 25.0], in assay [1], the IC50 is no less than 1.9 nM.

For the compound `O=C1CCCCC1CCC(=O)N1CCC([C@H]2c3ncc(Br)cc3CCc3cc(Cl)cc(Br)c32)CC1` (some centres unmarked) [Compound 19.0], the IC50 in assay [1] is no less than 1.9 nM.

As to `O=C1CCN(CC(=O)N2CCC([C@H]3c4ncc(Br)cc4CCc4cc(Cl)cc(Br)c43)CC2)CC1` [Compound 14.0], in assay [1], the concentration for half-maximal inhibition (IC50) is no less than 1.9 nM.

Turning to `O=C(CN1CCC2(CC1)OCCO2)N1CCC([C@H]2c3ncc(Br)cc3CCc3cc(Cl)cc(Br)c32)CC1` [Compound 24.0], the IC50 in assay [1] was no less than 1.9 nM.

Compound `O=C(C=C1CCC2(CC1)OCCO2)N1CCC([C@H]2c3ncc(Br)cc3CCc3cc(Cl)cc(Br)c32)CC1` [Compound 21.0] gave a 50% inhibitory concentration (IC50) in assay [1] of no less than 1.9 nM.

Consider `O=C(CC1CCC2(CC1)OCCO2)N1CCC([C@H]2c3ncc(Br)cc3CCc3cc(Cl)cc(Br)c32)CC1` [Compound 22.0], for which the IC50 in assay [1] is no less than 1.9 nM.

In turn, `CCOC(=O)C(=O)N[C@H]1CC[C@@H](C(=O)N2CCC([C@H]3c4ncc(Br)cc4CCc4cc(Cl)cc(Br)c43)CC2)CC1` [Compound 39.0] showed an IC50 in assay [1] of no less than 1.9 nM.

For the compound `O=C1CCC(=CC(=O)N2CCC([C@H]3c4ncc(Br)cc4CCc4cc(Cl)cc(Br)c43)CC2)CC1` [Compound 16.0], the half-maximal inhibitory concentration (IC50) in assay [1] is no less than 1.9 nM.

`O=C(CN1CCC(=NO)CC1)N1CCC([C@H]2c3ncc(Br)cc3CCc3cc(Cl)cc(Br)c32)CC1` [Compound 26.0]: the IC50 in assay [1] is no less than 1.9 nM.
